The record followed here is PubChem BioAssay (NCI).

Several values for one entry are separate records, joined by “and”; a condition that tells them apart may be missing. Equal values may be shown once.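 96-well plates; 48 h exposure; 5 concentrations. Endpoints by linear interpolation between flanking doses. Not reached: highest tested concentration assigned. GI50: concentration for 50% inhibition of growth. Definition used: TGI = concentration required for complete inhibition of growth.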

For this assay, the system named is MDA-MB-468 breast. Description: inhibition of tumour cell growth, NCI panel, 48 h.
Consider `CCCCSSC(=S)N(CC)CC`, for which the GI50 was 65100 nM and the TGI was greater than 100 µM. Turning to `C=C1C(=O)O[C@H]2[C@H]1CC/C(COC(=O)NCc1[nH]nc3ccccc13)=C\CC[C@@]1(C)O[C@@H]21`, the GI50 was 736 nM and the TGI amounted to 2.72 µM. On the same counts, the results for `O=c1ccc(N=Nc2ccccc2)ccc1Cl` are 2460 nM and 10.8 µM. For the compound `COC(=O)c1cc2cc(-c3ccc(OC)cc3)cnc2[nH]1`, the GI50 was 744 nM. With `CSc1nn2c(-c3ccc4ccccc4c3)ccnc2c1C#N`, the GI50 was 2870 nM and the TGI was 18.3 µM.

Consider `N=C1N(c2ccccc2)C(=S)C(=Nc2ccccc2)N1c1ccccc1`, for which the GI50 is 7140 nM and the TGI was 20.8 µM. For `C/C=C(/C(=C/C)c1ccc(O)cc1)c1ccc(O)cc1`, in that order: 2000 nM and 6.85 µM. For `Cc1ccc(NS(=O)(=O)c2ccc(-c3cnc(C4CC4)o3)cc2)cc1C`, in that order: 231 nM and 2.33 µM. On the same counts, the results for `CN1CCN(Cc2ccc(NC(=O)c3nc4ccc5[nH]ncc5c4c4c3CCCC4)cc2C(F)(F)F)CC1` are 797 nM and 1.6 µM. For the compound `O=NNc1ccc(S(=O)c2ccccc2)cn1` (stereo not drawn), the GI50 is 76200 nM and the TGI is greater than 100 µM. For `CN(C)c1ccc(O)c2c1CC1CC3C(N(C)C)C(=O)C(C(N)=O)=C(O)C3(O)C(=O)C1=C2O` (stereo not drawn), in that order: 11000 nM and 57.7 µM. Turning to `CCNC(=O)N1CCc2cc(OC)c(OCCc3ccc(OC)nc3)cc2C1c1ccc(C)cc1C` (stereo not drawn), the GI50 is 1590 nM and the TGI came to 7.58 µM. On to `C=C1C(=O)O[C@H]2[C@H]1CC/C(COC(=O)NCc1ccc(Cn3c(=O)sn(CCI)c3=O)cc1)=C\CC[C@@]1(C)O[C@@H]21`, for which the GI50 is 1250 nM and the TGI was 2.81 µM. Take `COC(=O)[C@@H]1CCCN1C(=O)[C@@H]1CCCN1C(=O)[C@H](Cc1ccccc1)NC(=S)Nc1cc(C(F)(F)F)cc(C(F)(F)F)c1`: the GI50 is 2480 nM and the TGI worked out at 9.62 µM. Take `CN1CCN(Cc2ccc(NC(=O)c3cnc(F)c(C#Cc4cnc(N)c5ncccc45)c3)cc2C(F)(F)F)CC1`: the GI50 was 386 nM and the TGI was determined as 7.68 µM.

As to `CCN(CCCNC(=O)Cc1cc(=O)oc2cc(N(C)C)ccc12)CCNc1ccnc2cc(Cl)ccc12`, the GI50 was 1960 nM and the TGI was found to be 6 µM. Consider `C=CCOC1=CC(=O)c2ccccc2C1=O`, for which the GI50 is 2080 nM and the TGI is 5.14 µM. For `CCC(CC)COC(=O)[C@H](C)N[P@](=O)(OC[C@H]1O[C@@](C#N)(c2ccc3c(N)ncnn23)[C@H](O)[C@@H]1O)Oc1ccccc1`, in that order: 491 nM and 3.83 µM. On the same counts, the results for `CCSc1ccc2c(c1)N(CCCN1CCN(C)CC1)c1ccccc1S2` are 1730 nM and 3.38 µM. Turning to `Oc1ccc(/C=C/c2ccc(O)cc2)cc1`, the GI50 was 10700 nM and the TGI was greater than 100 µM. For `NS(=O)(=O)N(c1cc(C(F)(F)F)cc(C(F)(F)F)c1)C1CCN(Cc2ccc(C(F)(F)F)cc2)CC1`, in that order: 5650 nM and 12 µM. On the same counts, the results for `COc1cccc(-n2ncc3c(N/N=C/c4ccc(F)cc4)ncnc32)c1` are greater than 25000 nM and greater than 25 µM.

On to `CO[C@@H](C(=O)N1Cc2[nH]nc(NC(=O)c3ccc(N4CCN(C)CC4)cc3)c2C1)c1ccccc1`, for which the GI50 is 585 nM and 130 nM; the TGI was 5.28 µM and > 10 µM. Consider `CCCCC/C=C/C(=O)CCc1ccc(O)c(OC)c1`, for which the GI50 is 3180 nM and the TGI worked out at 13 µM.

With `COc1ccc(-c2cc3c(OC)c(OC)c(OC)cc3oc2=O)cc1`, the GI50 is 2210 nM and the TGI is 8.46 µM. On the same counts, the results for `COc1ccc(CN2CCc3c(Sc4ccccc4)nc(N)nc3C2=O)c(OC)c1` are 3510 nM and 14 µM. For `COc1ccc(-c2cnoc2-c2ccc(OC)cc2O)cc1`, in that order: 844 nM and 5.46 µM.
